This is an account of results in the NIST ThermoML archive (doi:10.1021/je050316s).

The nature of data set [1]: xn = mol fraction of the nth substance listed. To be noted: 303.15 K, 101.33 kPa, Liquid.
Data set [2] in a line: refractive index (Na D-line) (dimensionless). The note with it: 293.15 K; 101.33 kPa; Liquid; Standard Abbe refractometry.
Data set [3] in a line: activity coefficient (dimensionless); of the first substance listed, at infinite dilution; xn = mol fraction of the nth substance listed. The note with it: Liquid, Differential ebulliometry, x1 = 0.

Numbers after ± are expanded uncertainties.

For the molecule `NC1CCCCC1` [cyclohexylamine] + CCCCCCCCCC, the mass density – broadly, the mass of a sample divided by its volume – in data set [1] (x1 = 0.1004) came out at 729.74 ± 0.37 kg/m3; in data set [1] (x1 = 0.2003), 737.86 ± 0.36 kg/m3; in data set [1] (x1 = 0.3002), 746.97 ± 0.35 kg/m3; in data set [1] (x1 = 0.3994), 757.29 ± 0.34 kg/m3; in data set [1] (x1 = 0.4998) it was 768.9 ± 0.32 kg/m3; in data set [1] (x1 = 0.5996) it was 782.09 ± 0.31 kg/m3. Besides, the mass density in data set [1] (x1 = 0.6996) turned out to be 797.14 ± 0.29 kg/m3; in data set [1] (x1 = 0.8002), 814.52 ± 0.28 kg/m3; in data set [1] (x1 = 0.9006), 834.67 ± 0.26 kg/m3; in data set [1] (x1 = 1), 858.2 ± 0.23 kg/m3.
With `O` [water], the refractive index (as a rule, the speed of light in vacuum divided by its phase velocity in the sample) in data set [2] is on record as 1.3336 ± 0.0004.
Take `NC1CCCCC1` [cyclohexylamine] + CCCCCCCC: the activity coefficient stood at 1.61 ± 0.1 in data set [3] (353.15 K), 1.5 ± 0.09 in data set [3] (373.15 K) and 1.42 ± 0.09 in data set [3] (393.15 K). Moreover, the mass density in data set [1] (x1 = 0.1036) is listed as 705.94 ± 0.38 kg/m3; in data set [1] (x1 = 0.2003), 717.44 ± 0.37 kg/m3; in data set [1] (x1 = 0.3006) it was 730.4 ± 0.36 kg/m3; in data set [1] (x1 = 0.4085), 745.58 ± 0.34 kg/m3; in data set [1] (x1 = 0.5001), 759.5 ± 0.33 kg/m3; in data set [1] (x1 = 0.5991) it was 775.85 ± 0.31 kg/m3. Moreover, the mass density stood at 793.85 ± 0.29 kg/m3 in data set [1] (x1 = 0.6998); 803.55 ± 0.28 kg/m3 in data set [1] (x1 = 0.7503); 813.83 ± 0.27 kg/m3 in data set [1] (x1 = 0.8018); 823.95 ± 0.27 kg/m3 in data set [1] (x1 = 0.8502); 858.2 ± 0.23 kg/m3 in data set [1] (x1 = 1).
Take `NC1CCCCC1` [cyclohexylamine] + Nc1ccccc1: the activity coefficient in data set [3] (383.15 K) came to 0.84 ± 0.05; in data set [3] (393.15 K), 0.94 ± 0.06; in data set [3] (403.15 K), 1.03 ± 0.06. Moreover, the mass density in data set [1] (x1 = 0.1161) is listed as 992.51 ± 0.25 kg/m3; in data set [1] (x1 = 0.1936), 979.58 ± 0.23 kg/m3; in data set [1] (x1 = 0.281), 965.35 ± 0.22 kg/m3; in data set [1] (x1 = 0.3837) it was 949.2 ± 0.21 kg/m3; in data set [1] (x1 = 0.4907) it was 932.82 ± 0.21 kg/m3; in data set [1] (x1 = 0.5932) it was 917.38 ± 0.21 kg/m3. Moreover, the mass density in data set [1] (x1 = 0.7087) was 900.24 ± 0.21 kg/m3; in data set [1] (x1 = 0.7738), 890.69 ± 0.21 kg/m3; in data set [1] (x1 = 0.8759), 875.75 ± 0.22 kg/m3; in data set [1] (x1 = 1), 858.2 ± 0.23 kg/m3.
As for `NC1CCCCC1` [cyclohexylamine] + CCCCCCCCC, the mass density amounted to 718.79 ± 0.37 kg/m3 in data set [1] (x1 = 0.0998); 728.47 ± 0.36 kg/m3 in data set [1] (x1 = 0.1994); 739.41 ± 0.35 kg/m3 in data set [1] (x1 = 0.301); 751.43 ± 0.34 kg/m3 in data set [1] (x1 = 0.401); 764.51 ± 0.32 kg/m3 in data set [1] (x1 = 0.4998); 779.38 ± 0.31 kg/m3 in data set [1] (x1 = 0.6006). The mass density is 795.69 ± 0.29 kg/m3 in data set [1] (x1 = 0.7), 813.15 ± 0.28 kg/m3 in data set [1] (x1 = 0.7955), 834.62 ± 0.26 kg/m3 in data set [1] (x1 = 0.8999) and 858.2 ± 0.23 kg/m3 in data set [1] (x1 = 1).
Take `CCCCCCC` [heptane] + NC1CCCCC1: the mass density in data set [1] (x2 = 0) amounted to 675.32 ± 0.44 kg/m3.
On the same count and under the same terms, under `CCCCCCCCC` [nonane] + NC1CCCCC1 stands 710.05 ± 0.38 kg/m3.
The same measure, in the same setting: under `Nc1ccccc1` [aniline] + NC1CCCCC1 stands 1012.94 ± 0.27 kg/m3.
With `CCCCCCCCCC` [decane] + NC1CCCCC1, the mass density in data set [1] (x2 = 0) was 722.54 ± 0.38 kg/m3.
Turning to `Cc1ccccc1` [toluene] + NC1CCCCC1, the activity coefficient worked out at 1.14 ± 0.07 in data set [3] (353.15 K), 1.13 ± 0.07 in data set [3] (373.15 K) and 1.06 ± 0.06 in data set [3] (393.15 K).
As to `NC1CCCCC1` [cyclohexylamine] + O, the mass density in data set [1] (x1 = 0.1002) is 956.7 ± 0.15 kg/m3; in data set [1] (x1 = 0.197), 935.34 ± 0.16 kg/m3; in data set [1] (x1 = 0.2237) it was 930.93 ± 0.16 kg/m3; in data set [1] (x1 = 0.3021) it was 919.43 ± 0.17 kg/m3; in data set [1] (x1 = 0.397), 908.71 ± 0.18 kg/m3; in data set [1] (x1 = 0.5016) it was 897.85 ± 0.19 kg/m3. Further, the mass density in data set [1] (x1 = 0.6037) is 888.39 ± 0.2 kg/m3; in data set [1] (x1 = 0.6931), 880.7 ± 0.21 kg/m3; in data set [1] (x1 = 0.7801), 873.76 ± 0.21 kg/m3; in data set [1] (x1 = 0.9004) it was 864.97 ± 0.22 kg/m3; in data set [1] (x1 = 1), 858.2 ± 0.23 kg/m3.
With `NC1CCCCC1` [cyclohexylamine] + Cc1ccccc1, the activity coefficient in data set [3] (353.15 K) was 1.19 ± 0.07; in data set [3] (373.15 K) it was 1.12 ± 0.07.
`CCc1ccccc1` [ethylbenzene] + NC1CCCCC1: the results for the activity coefficient in data set [3] (353.15 K), in data set [3] (373.15 K) and in data set [3] (393.15 K) were 1.18 ± 0.07, 1.16 ± 0.07 and 1.13 ± 0.07, respectively.
Consider `CCCCCCCCCCC` [undecane] + NC1CCCCC1, for which the mass density in data set [1] (x2 = 0) turned out to be 732.93 ± 0.36 kg/m3; in data set [1] (x2 = 0.1) it was 738.82 ± 0.35 kg/m3; in data set [1] (x2 = 0.2172), 747 ± 0.34 kg/m3; in data set [1] (x2 = 0.3066) it was 754.16 ± 0.34 kg/m3; in data set [1] (x2 = 0.4011), 762.69 ± 0.33 kg/m3; in data set [1] (x2 = 0.5005), 772.99 ± 0.32 kg/m3. In addition, the mass density in data set [1] (x2 = 0.5997) amounted to 784.83 ± 0.3 kg/m3; in data set [1] (x2 = 0.7005), 798.79 ± 0.29 kg/m3; in data set [1] (x2 = 0.7998), 814.98 ± 0.27 kg/m3; in data set [1] (x2 = 0.8998), 834.57 ± 0.26 kg/m3.
Regarding `NC1CCCCC1` [cyclohexylamine] + CCCCCCCCCCC, the mass density in data set [1] (x1 = 1) was 858.2 ± 0.23 kg/m3.
As to `NC1CCCCC1` [cyclohexylamine] + CCCCCCC, the mass density stood at 689.34 ± 0.43 kg/m3 in data set [1] (x1 = 0.1009); 703.99 ± 0.41 kg/m3 in data set [1] (x1 = 0.1999); 719.71 ± 0.39 kg/m3 in data set [1] (x1 = 0.3006); 735.92 ± 0.37 kg/m3 in data set [1] (x1 = 0.3983); 753.83 ± 0.35 kg/m3 in data set [1] (x1 = 0.5); 772.37 ± 0.33 kg/m3 in data set [1] (x1 = 0.5999). Also, the mass density in data set [1] (x1 = 0.6989) is recorded as 791.79 ± 0.31 kg/m3; in data set [1] (x1 = 0.7996) it was 812.68 ± 0.28 kg/m3; in data set [1] (x1 = 0.8993) it was 834.6 ± 0.26 kg/m3; in data set [1] (x1 = 1) it was 858.2 ± 0.23 kg/m3.
Take `CCCCCCCC` [octane] + NC1CCCCC1: the activity coefficient in data set [3] (353.15 K) came out at 1.36 ± 0.08; in data set [3] (373.15 K), 1.29 ± 0.08; in data set [3] (393.15 K) it was 1.2 ± 0.07. In data set [1] (x2 = 0), the mass density was determined as 694.67 ± 0.39 kg/m3.
Consider `NC1CCCCC1` [cyclohexylamine] + CCc1ccccc1, for which the values for the activity coefficient in data set [3] (353.15 K), in data set [3] (373.15 K) and in data set [3] (393.15 K) were 1.13 ± 0.07, 1.09 ± 0.07 and 1.06 ± 0.06, respectively.
